Source: patent US20160279069A1, “MATERIALS AND METHODS FOR SUSTAINED RELEASE OF ACTIVE COMPOUNDS” (The Florida International University Board of Trustees, priority 2015, published 2016)

How the values were obtained:
human astrocytes (HAs) = tested on: human astrocytes (HAs)
Protocol: In vitro cytotoxicity was assessed by MTT cell viability assay, using a CellTiter 96 Aqueous one-solution cell proliferation assay kit (catalog G3580; Promega, USA) (Nair, M. et al., Nat Commun. 2013; 4:1707). HAs were seeded in 96-well tissue plates at a density of 5×10^3 cells per well. […] Finally, approximately 100 μL stop solution (about 20% sodium dodecyl sulfate in about 50% dimethyl formamide) was added into each well, and absorbance was recorded at 550 nm by a microplate reader (Synergy HT; BioTek Instruments, Inc.).

[1] = tested on: HIV-1Ba-L infected primary human astrocytes (HA); test: p24 antigen ELISA in HIV-infected primary human astrocytes (latency breaking and antiviral efficacy); format: cell-based; settings: tested about 1 to about 10 μM, solution phase
Protocol: FIG. 11 represents an evaluation of the antiviral efficacy of an exemplary embodiment of the drug delivery system in suppressing p24 antigen levels in HIV-infected human astrocytes. The drug delivery system was added on the second day after HIV infection (HIV-1BaL) in equimolar concentration. Supernatants were evaluated on the third, fifth, and seventh day postinfection for p24 levels and were checked for its efficacy, along with its percentage cell viability, using MTT assay. […] Viral p24 protein in the culture supernatant was measured by enzyme-linked immunosorbent assay. Error bars indicate the standard deviation of triplicate data points and are representative of at least three experiments. Dotted lines represent the percentage cell viability; each point represents treatment period. […] NS=non-significant. MTT=3-(4,5-dimethylthiazol-2-yl)-2,5-diphenyltetrazolium bromide.
Latency-breaking and antiviral efficacy of the formulation was determined via quantification of p24 antigen in a primary human astrocytes (HA) infection model (Nair, M. et al., Nat Commun. 2013; 4:1707). […] The sustained-release ability of the finally assembled formulation ([MNP+tenofovir]2+vorinostat) was also evaluated over a treatment period of 5 days in the HA model. […]

O=C(CCCCCCC(=O)Nc1ccccc1)NO [vorinostat]
cytotoxicity of optimized vorinostat dose (human astrocytes (HAs)): nontoxic | vorinostat concentration giving maximum p24 value (latency reversal) [1]: 1 µM
